The source of these data is publication PMC10072198, “A covalent inhibitor targeting the papain-like protease from SARS-CoV-2 inhibits viral replication” (RSC Advances, 2023).

“Also recorded” adds a separate entry of the source.

For one data set, the target named is PLpro from SARS-CoV-2 (Severe acute respiratory syndrome coronavirus 2, UniProt P0DTD1). Kind of data set: Fluorescence based PLpro activity assay (R-L-R-G-G-AMC substrate). Type of data set: biochemical. The note with it: read-out: IC50 (PLpro inhibition).
In data set [1] the test system is SARS-CoV-2 (US/WA1/2020 isolate). Briefly: SARS-CoV-2 infection of cells (dsRNA staining, RT-qPCR of viral RNA). The note with it: for inhibition of SARS-CoV-2 replication in cells (in words): Calu-3 and/or Vero E6 cells. Type of data set: cell-based.
Another data set has as its target SARS-CoV-2 Mpro(3CL) (Severe acute respiratory syndrome coronavirus 2, UniProt P0DTD1). Briefly: Fluorescence based Mpro(3CL) activity assay. Type of data set: biochemical. On the procedure:
Fluorescence based Mpro(3CL) activity assays
The ability of compounds 1, 19 and 20 to inhibit Mpro was determined using SensoLyte® 520 SARS-CoV-2 3CL Protease Activity Assay Kit (Anaspec), following the manufacturer’s instructions. Briefly, 40 µL diluted Mpro enzyme solution was added to a flat-bottom 96-well plate.
10 µL of varying concentrations of test compounds or GC 376 solution (an Mpro inhibitor) was (1 picture or pasted object on this page, not shown here) […]
(§1) subsequently added to the enzyme solution. The mixed solutions were incubated at room temperature for 20 min. 50 µL of Mpro protease substrate solution was added to each well, followed by 30 min incubation at 37 °C. The Mpro activity was detected by measuring the fluorescence emission intensity λ excitation=490 nm; λ emission=520nm.
(§2) Compound concentration µM
(§3) Fluorescence based PLpro activity assay in the presence of […] (DTT) and […]
(§4) PLpro inhibition assays were performed in the presence of 5 mM DTT and GSH to determine if […]
(§5) PLpro protease activity was measured with peptide substrate x-x-G-G-AMC (Bachem) in the presence or absence of 5 mM DTT and GSH.
(§6) PLpro was added into a black, flat-bottom 96-well plate at a final concentration of 50 nM with reaction buffer [150 mM NaCl, 20 mM HEPES, 0.1mg/mL BSA, pH 7.5] with or without 5 mM DTT […]
(§7) 0-80 µM for 20 min at room temperature. The enzyme activity assay was initiated by mixing the x-x-G-G-AMC probe at a final 50 µM and incubating for another 20 min at room temperature. The reaction was ended by adding 1 µL of aqueous citric acid. The PLpro activity was detected by measuring the fluorescence emission intensity λ excitation=360 nm; λ emission=460nm.

In data set [2] the target is T1, PLpro (Severe acute respiratory syndrome coronavirus 2, UniProt P0DTD1). Briefly: PLpro irreversibility test (pre-incubation then dilution). Type of data set: biochemical, SARS-CoV-2. The text has this: All error bars represent the standard error of the mean for n = 3 replicates.
Data set [3] concerns the target T1, PLpro. Briefly: PLpro activity assay in the presence of DTT and GSH. Type of data set: biochemical, SARS-CoV-2. The note with it: 5 mM glutathione or 5 mM DTT. On the procedure:
as §1, §2, §3, §4, §5, §6, §7

Another data set is described as follows: in vitro. Particulars: human.
Data set [4] in a line: Determination of GSH t1/2 values. Particulars: buffer, pH 7.4.
In the next data set the test system is SARS-CoV PLpro. Particulars: cited from earlier work.
A further data set relates to SARS-CoV2. Particulars: mouse, in vivo, po; cited from earlier work.

As for `O=C(CCl)Nc1ccc2c(c1)NC(=O)CO2` [Compound 1], the concentration for half-maximal inhibition (IC50) was 18 µM on PLpro from SARS-CoV-2; less than 20 µM in data set [1] (Severe acute respiratory syndrome coronavirus 2, Calu-3 and Vero E6 cells, 72 hours, read-out: IC50 for inhibiting viral replication). Also, in [1], the “inhibition of SARS-CoV-2 replication in cells (in words)” value (shortened to “inhibition of SARS-CoV-2 replication”) is given as “blocked SARS-CoV-2 replication in both cell lines; also recorded: inhibited viral replication in both cell lines”. For the same compound, the “inhibition of Mpro (in words)” value at SARS-CoV-2 Mpro(3CL) is given as “did not inhibit; also recorded: no interaction”. For the same compound, the “PLpro inhibition without pre-incubation” value on PLpro [2] (500 nM, without pre-incubation at 50 μM) was “no inhibition”. Moreover, on PLpro [2] (pre-incubated at 50 μM for 1 hour, then diluted to 500 nM), the “PLpro inhibition after pre-incubation and dilution” value is reported as “complete inhibition”. Also, the “PLpro inhibition in the presence of thiols (in words)” value on PLpro [3] is “able to inhibit PLpro”.
As to `O=C(CCl)Nc1ncc([N+](=O)[O-])s1` [Compound 2], the IC50 on PLpro from SARS-CoV-2 was 13 µM.
On to `Cn1ncc(C(=O)CCl)n1` [Compound 3], for which the concentration for half-maximal inhibition (IC50) on PLpro from SARS-CoV-2 was determined as 0.3 µM. For the same compound, the “inhibition of SARS-CoV-2 replication” value in data set [1] is “not effective in cells”. Besides, the CC50 in the data set “in vitro” was 62.5 µM.
With `O=C(NCCc1ccc(F)cc1)n1ccnc1` [Compound 4], the IC50 on PLpro from SARS-CoV-2 amounted to 2.5 µM. In addition, the CC50 in “in vitro” is more than 500 µM. The half-life at 0.05 mM in [4] came to 13.4 min.
Consider `O=S(=O)(F)c1cncc(Cl)n1` [Compound 5], for which the IC50 on PLpro from SARS-CoV-2 was determined as 1.7 µM. Besides, the CC50 in “in vitro” is more than 500 µM.
Take `C=CS(=O)(=O)c1nc2ccccc2s1` [Compound 6]: the IC50 at PLpro from SARS-CoV-2 stood at 1 µM.
In the case of `O=C1COc2cc([N+](=O)[O-])c(NC(=O)CCl)cc2N1` [Compound 19], the IC50 on PLpro from SARS-CoV-2 is 5 µM. For the same compound, in data set [1], the “inhibition of SARS-CoV-2 replication” value was “no inhibitory activity against SARS-CoV-2; also recorded: did not inhibit viral replication”. Moreover, on SARS-CoV-2 Mpro(3CL), the “inhibition of Mpro (in words)” value was “no interaction”.
Take `O=C(CCl)Nc1cc2c(cc1Br)CCC(=O)N2` [Compound 20]: on PLpro from SARS-CoV-2, the IC50 worked out at 6 µM. Further, the “inhibition of SARS-CoV-2 replication” value in data set [1] is recorded as “no inhibitory activity against SARS-CoV-2; also recorded: did not inhibit viral replication”. For the same compound, the “inhibition of Mpro (in words)” value on SARS-CoV-2 Mpro(3CL) is “no interaction”.
For the compound `Cc1ccc(N)cc1C(=O)N[C@H](C)c1cccc2ccccc12` [GRL-0617], the half-maximal inhibitory concentration (IC50) in the data set on SARS-CoV PLpro is […]. The “antiviral activity against SARS-CoV2 in mice” value with SARS-CoV2 is given as “moderate antiviral activity”.
